# Reference: patent US7851410B2, “Herbicidal composition” (FMC Corporation, priority 2006, dated 2010)
# Assays:
# Assay type in all cases: in vivo
# Barnyard Grass = assay: Pre-emergent herbicidal evaluation on Barnyard Grass (field plots, spray)
# Description: (§1) Test compositions were prepared by dilution of a 65% water-soluble granule (65 WG) formulation of 2,4-dinitro-N^3,N^3-dipropyl-6-(trifluoromethyl)-1,3-benzenediamine in a spray tank that provided the appropriate application rate of 2,4-dinitro-N^3,N^3-dipropyl-6-(trifluoromethyl)-1,3-benzenediamine. Test compositions were also prepared by dilution of a 80% wettable powder (80 WP) formulation of N-[2,4-dichloro-5-[4-(difluoromethyl)-4,5-dihydro-3-methyl-5-oxo-1H-1,2,4-triazol-1-yl]phenyl]methanesulfonamide in a spray tank that provided the appropriate application rate of N-[2,4-dichloro-5-[4-(difluoromethyl)-4,5-dihydro-3-methyl-5-oxo-1H-1,2,4-triazol-1-yl]phenyl]methanesulfonamide. In addition, test compositions were prepared containing mixtures of a 65% water-soluble granule (65 WG) formulation of 2,4-dinitro-N^3,N^3-dipropyl-6-(trifluoromethyl)-1,3-benzenediamine and a 80% wettable powder (80 WP) formulation of N-[2,4-dichloro-5-[4-(difluoromethyl)-4,5-dihydro-3-methyl-5-oxo-1H-1,2,4-triazol-1-yl]phenyl]methanesulfonamide with water that provided the specified rates of the two herbicides.
# (§2) The application of each test composition was performed with pressurized back-pack sprayers, calibrated to spray between 10 and 15 gallons per acre.
# (§3) The experimental design used randomized plots with one pre-emergent treatment either the day of planting or the day after planting and four to eight replications per test trial. The size of each experimental plot was 6 feet by 30 feet.
# Percent control of the weed (Barnyard Grass) was evaluated and averaged in each experimental plot at 14 days after treatment (DAT) of each test rate.
# (§4) The results, shown as an average of the replications, were compared with results observed in untreated control plots in the same trials.
# Spurge = assay: Pre-emergent herbicidal evaluation on Spurge (field plots, granular fertilizer compositions)
# Description: Test compositions were prepared of i) a granular fertilizer and 2,4-dinitro-N^3,N^3-dipropyl-6-(trifluoromethyl)-1,3-benzenediamine, and ii) a granular fertilizer and N-[2,4-dichloro-5-[4-(difluoromethyl)-4,5-dihydro-3-methyl-5-oxo-1H-1,2,4-triazol-1-yl]phenyl]methanesulfonamide. The test compositions were prepared to provide the desired application rates of 2,4-dinitro-N^3,N^3-dipropyl-6-(trifluoromethyl)-1,3-benzenediamine and N-[2,4-dichloro-5-[4-(difluoromethyl)-4,5-dihydro-3-methyl-5-oxo-1H-1,2,4-triazol-1-yl]phenyl]methanesulfonamide. In addition, test compositions were prepared containing mixtures of 2,4-dinitro-N^3,N^3-dipropyl-6-(trifluoromethyl)-1,3-benzenediamine and N-[2,4-dichloro-5-[4-(difluoromethyl)-4,5-dihydro-3-methyl-5-oxo-1H-1,2,4-triazol-1-yl]phenyl]methanesulfonamide with granular fertilizer that provided the specified rates of the two herbicides.
# The experimental design used randomized plots with one pre-emergent treatment either the day of planting or the day after planting and three to four replications per test trial. The size of each experimental plot was 6 feet by 30 feet.
# Percent control of the weed (Spurge) was evaluated and averaged in each experimental plot at 70 days after treatment (DAT) of each test rate.
# as §4
# Annual Blue Grass = assay: Pre-emergent herbicidal evaluation on Annual Blue Grass (field plots, spray)
# Description: as §1, §2, §3
# Percent control of the weed (Annual Blue Grass) was evaluated and averaged in each experimental plot at 14 days after treatment (DAT) of each test rate.
# as §4
# Johnson Grass = assay: Pre-emergent herbicidal evaluation on Johnson Grass (field plots, spray)
# Description: as §1, §2, §3
# Percent control of the weed (Johnson Grass) was evaluated and averaged in each experimental plot at 14 days after treatment (DAT) of each test rate.
# as §4
# Goose Grass = assay: Pre-emergent herbicidal evaluation on Goose Grass (field plots, spray)
# Description: as §1, §2, §3
# Percent control of the weed (Goose Grass) was evaluated and averaged in each experimental plot at 14 days after treatment (DAT) of each test rate.
# as §4
# Green Foxtail = assay: Pre-emergent herbicidal evaluation on Green Foxtail (field plots, spray)
# Description: as §1, §2, §3
# Percent control of the weed (Green Foxtail) was evaluated and averaged in each experimental plot at 14 days after treatment (DAT) of each test rate.
# as §4
structure (smiles),measurement,setting,value
"Cc1nn(-c2cc(NS(C)(=O)=O)c(Cl)cc2Cl)c(=O)n1C(F)F [A, N-[2,4-dichloro-5-[4-(difluoromethyl)-4,5-dihydro-3-methyl-5-oxo-1H-1,2,4-triazol-1-yl]phenyl]methanesulfonamide]",Control @ 14 DAT,Barnyard Grass; 0.06 lb AI/Acre,55%
same,Control @ 14 DAT,Barnyard Grass; 0.12 lb AI/Acre,80%
same,Control @ 14 DAT,Barnyard Grass; 0.19 lb AI/Acre,88%
same,Control @ 14 DAT,Barnyard Grass; 0.25 lb AI/Acre,93%
same,Control @ 70 DAT,Spurge; 0.125 lb AI/Acre,0%
same,Control @ 70 DAT,Spurge; 0.250 lb AI/Acre,6%
same,Control @ 70 DAT,Spurge; 0.375 lb AI/Acre,6%
same,Control @ 14 DAT,Annual Blue Grass; 0.06 lb AI/Acre,37%
same,Control @ 14 DAT,Annual Blue Grass; 0.12 lb AI/Acre,47%
same,Control @ 14 DAT,Annual Blue Grass; 0.19 lb AI/Acre,62%
same,Control @ 14 DAT,Annual Blue Grass; 0.25 lb AI/Acre,60%
same,Control @ 14 DAT,Johnson Grass; 0.06 lb AI/Acre,42%
same,Control @ 14 DAT,Johnson Grass; 0.12 lb AI/Acre,67%
same,Control @ 14 DAT,Johnson Grass; 0.19 lb AI/Acre,65%
same,Control @ 14 DAT,Johnson Grass; 0.25 lb AI/Acre,70%
same,Control @ 14 DAT,Goose Grass; 0.06 lb AI/Acre,49%
same,Control @ 14 DAT,Goose Grass; 0.12 lb AI/Acre,69%
same,Control @ 14 DAT,Goose Grass; 0.19 lb AI/Acre,77%
same,Control @ 14 DAT,Goose Grass; 0.25 lb AI/Acre,79%
same,Control @ 14 DAT,Green Foxtail; 0.06 lb AI/Acre,62%
same,Control @ 14 DAT,Green Foxtail; 0.12 lb AI/Acre,76%
same,Control @ 14 DAT,Green Foxtail; 0.19 lb AI/Acre,93%
same,Control @ 14 DAT,Green Foxtail; 0.25 lb AI/Acre,97%
"CCCN(CCC)c1c([N+](=O)[O-])cc(C(F)(F)F)c(N)c1[N+](=O)[O-] [B, 2,4-dinitro-N^3,N^3-dipropyl-6-(trifluoromethyl)-1,3-benzenediamine]",Control @ 14 DAT,Barnyard Grass; 0.12 lb AI/Acre,63%
same,Control @ 14 DAT,Barnyard Grass; 0.25 lb AI/Acre,69%
same,Control @ 14 DAT,Barnyard Grass; 0.50 lb AI/Acre,86%
same,Control @ 70 DAT,Spurge; 0.50 lb AI/Acre,42%
same,Control @ 70 DAT,Spurge; 0.75 lb AI/Acre,70%
same,Control @ 70 DAT,Spurge; 1.00 lb AI/Acre,60%
same,Control @ 14 DAT,Annual Blue Grass; 0.12 lb AI/Acre,45%
same,Control @ 14 DAT,Annual Blue Grass; 0.25 lb AI/Acre,38%
same,Control @ 14 DAT,Annual Blue Grass; 0.50 lb AI/Acre,58%
same,Control @ 14 DAT,Johnson Grass; 0.12 lb AI/Acre,42%
same,Control @ 14 DAT,Johnson Grass; 0.25 lb AI/Acre,48%
same,Control @ 14 DAT,Johnson Grass; 0.50 lb AI/Acre,77%
same,Control @ 14 DAT,Goose Grass; 0.12 lb AI/Acre,76%
same,Control @ 14 DAT,Goose Grass; 0.25 lb AI/Acre,99%
same,Control @ 14 DAT,Goose Grass; 0.50 lb AI/Acre,100%
same,Control @ 14 DAT,Green Foxtail; 0.12 lb AI/Acre,87%
same,Control @ 14 DAT,Green Foxtail; 0.25 lb AI/Acre,91%
same,Control @ 14 DAT,Green Foxtail; 0.50 lb AI/Acre,95%
